Laboratory results taken from patent US8455448B2, “Myostatin isoform” (Myostin Therapeutics Pty Ltd, priority 2004, dated 2013).
“Also recorded” adds a separate entry of the source.

Tests used:
murine C2C12 myoblasts = test: Proliferation assay of C2C12 murine myoblasts (methylene blue, absorbance 655 nm); type: cell-based
Protocol: (§1) Myoblasts were seeded in 96-well tissue culture plates (Nunc, Roskilde, Denmark) at a cell density of 1000 cells per well in 200 μl of Dulbecco's modified Eagle's medium (DMEM, Invitrogen, California) supplemented with foetal bovine serum (FBS, 10% v/v, Invitrogen), penicillin (1×10^5 IU/l, Sigma, St Louis, Mo., USA) and streptomycin (100 mg/l, Sigma) buffered with NaHCO3 containing phenol red (7.22 nmol/l) as a pH indicator, and incubated overnight at 37° C. with 5% CO2. Medium was replaced with DMEM 10% FBS test medium containing 0, 0.001, 0.003, 0.01, 0.03, 0.1, 0.3, 1, 3 or 10 μg/ml oMSV65 in a semi-random arrangement of eight replicates (n=8) for each test medium. Plates were incubated at 37° C. with 5% CO2 for 72 hours, and then the medium was removed. The wells were washed with 200 μl of phosphate buffered saline (PBS, Oxoid, UK) and fixed with 100 μl of 10% formaldehyde, 0.9% NaCl solution for at least one hour. The fixative was then removed and 100 μl of 1% methylene blue stain in 0.01 M borate buffer (pH 8.5) was added to each well and incubated for 30 min at room temperature. Excess stain was removed by four sequential washes in borate buffer. Methylene blue was eluted from the cells by the addition of 100 μl 1:1 (v/v) ethanol/0.1 HCl. The plates were gently shaken and the absorbance was measured at 655 nm using a microplate photometer (FIGS. 3a and 3b).
as §1, with “0,” for “0, 0.001, 0.003,”, “0.01,” for “0.01, 0.03,”, “1” for “0.3, 1, 3”, “oMSV47” for “oMSV65”, “60” for “72”, “(FIG. 9).” for “(FIGS. 3a and 3b).”
Myoblasts were seeded in 96-well tissue culture plates (Nunc, Roskilde, Denmark) at a cell density of 1000 cells per well in […] of Dulbecco's modified Eagle's medium (DMEM, Invitrogen, California) supplemented with foetal bovine serum (FBS, 10% v/v, Invitrogen), penicillin (1×10^5 IU/l, Sigma, St Louis, Mo., USA) and streptomycin (100 mg/l, Sigma) buffered with NaHCO3 containing phenol red (7.22 nmol/l) as a pH indicator, and incubated overnight at 37° C. with 5% CO2. Medium was replaced with DMEM 2.5% FBS test medium containing 0, 0.01, 0.1, 1, 5 or 10 μg/ml of the respective peptides in a semi-random arrangement of eight replicates (n=8) for each test medium. Plates were incubated at 37° C. with 5% CO2 for 80 hours, and then the medium was removed. The wells were washed with 200 μl of phosphate buffered saline (PBS, Oxoid, UK) and fixed with 100 μl of 10% formaldehyde, 0.9% NaCl solution for at least one hour. The fixative was then removed and 100 μl of 1% methylene blue stain in 0.01 M borate buffer (pH 8.5) was added to each well and incubated for 30 min at room temperature. Excess stain was removed by four sequential washes in borate buffer. Methylene blue was eluted from the cells by the addition of 100 μl 1:1 (v/v) ethanol/0.1 HCl. […]

[1] = test system: proliferating cell nuclear antigen (PCNA); test: PCNA protein in proliferating C2C12 myoblasts (Western blot); type: cell-based, murine; conditions: 0.1, 1, 10 μg/ml, 48 h, FIG. 7
Protocol: Thus, a decrease in p21 protein expression may indicate an increased cell proliferation rate. PCNA is a positive marker of cell proliferation. It is a subunit of DNA polymerase-delta during DNA replication in the cell cycle. Higher level of PCNA protein expression is associated with higher number of cells entering the DNA replication phase of the cell cycle.
C2C12 myoblasts were seeded in 10 cm diameter tissue culture plates (Nunc, Roskilde, Denmark) at a cell density of 3000 cells per cm^2 in 10 ml of Dulbecco's modified Eagle's medium (DMEM, Invitrogen, California) supplemented with foetal bovine serum (FBS, 10% v/v, Invitrogen), penicillin (1×105 IU/l, Sigma, St Louis, Mo., USA) and streptomycin (100 mg/l, Sigma) buffered with NaHCO3 containing phenol red (7.22 nmol/l) as a pH indicator, and incubated overnight at 37° C. with 5% CO2. The medium was replaced with the test medium: DMEM with 10% FBS supplemented with, 0.1, 1 or 10 μg/ml oMSV65 (n=3). The plates were then incubated at 37° C. with 5% CO2 for 48 hours. Cells were removed from the plate by trypsin treatment, washed with phosphate buffered saline (PBS, Oxoid, UK) and resuspended in 100 μl of lysis buffer (10 mM Hepes pH 7.9, 1.5 mM MgCl2, 10 mM KCl, 0.5% NP40, one Complete protease inhibitor tablet [Roche Diagnostics, USA] per 50 ml buffer). […] Band intensities were measured with a GS800 densitometer (BioRad, USA).

[2] = roMSV47 1-10,000 ng/ml, 60 h, FIG. 10

Molecule | proliferation of murine C2C12 myoblasts (murine C2C12 myoblasts; 0-10 μg/ml, DMEM 2.5% FBS, 80 h, FIG. 12A and FIG. 17) | C2C12 myoblast proliferation (murine C2C12 myoblasts; [2]) | concentration of maximum proliferation enhancing activity (murine C2C12 myoblasts; [2]) | increase in myoblast proliferation (murine C2C12 myoblasts; roMSV47, 60 h, FIG. 10) | myoblast cell growth (proliferation) (murine C2C12 myoblasts; roMSV65 0 to 10 μg/ml, 72 h, FIG. 3A) | proliferation of murine C2C12 myoblasts (murine C2C12 myoblasts; roMSV65 without myostatin, 48 h, FIG. 9) | PCNA protein levels in C2C12 myoblasts [1]
roMSV47: 47 amino acid C-terminal mature ovine MSV fragment (SEQ ID NO: 50), recombinant from E. coli (IIFLEVYIQFCSILGEAVFKRQSKSIHFCQNFKIIACLCNTAAFRMK; Ovis aries) | stimulate myoblast proliferation; also recorded: stimulate C2C12 cell growth in a dose dependent manner | stimulates murine C2C12 myoblast proliferation | 0.1 to 0.5 µg/mL | more than 2 fold |  |  | 
roMSV65: 65 amino acid C-terminal peptide of ovine MSV (SEQ ID NO: 49) expressed as recombinant protein in E. coli (protein, Ovis aries) VHFYTPPYGQWIFHKERKIIFLEVYIQFCSILGEAVFKRQSKSIHFCQNFKIIACLCNTAAFRMK |  |  |  |  | stimulate myoblast cell growth in a dose dependent manner | stimulated proliferation of murine myoblasts | concentration-dependent increase in PCNA protein levels
